Experimental findings from ChEMBL document CHEMBL1145302, “Synthesis and antibacterial activity of C6-carbazate ketolides” (2006) are described below.

Converted amounts (≈) assume the structure as drawn. Where only a bound is given, the exact number is not on record here.

As a reminder, the ED50 is the midpoint of the dose-response relation. A higher ED50 goes with weaker potency.

Holding throughout (type): functional
Test [1] relates to Staphylococcus aureus. Nature of the test: Antibacterial activity against erythromycin-susceptible Staphylococcus aureus Smith OC4172 in presence of 50% mouse serum.
Test [2] concerns Streptococcus pneumoniae. Kind of test: Antibacterial activity against erythromycin-susceptible Streptococcus pneumoniae OC9132.
The test system of test [3] is Staphylococcus haemolyticus. Nature of the test: Antibacterial activity against erythromycin resistant Staphylococcus haemolyticus OC3882 containing erm(C).
Test [4] relates to Haemophilus influenzae. Kind of test: Antibacterial activity against telithromycin-susceptible Haemophilus influenzae ATCC 49766.
Test [5] has as its system Streptococcus pneumoniae. Nature of the test: Antibacterial activity against erythromycin-resistant Streptococcus pneumoniae OC4051 containing erm(B).
Test [6] deals with Staphylococcus aureus. Kind of test: Antibacterial activity against erythromycin-susceptible Staphylococcus aureus Smith OC4172.
For test [7], the system named is Staphylococcus aureus. Nature of the test: Antibacterial activity against Staphylococcus aureus Smith infected in sc dosed Swiss Webster mouse septicemia model.
The subject of test [8] is Streptococcus pneumoniae. Kind of test: Antibacterial activity against erythromycin-resistant Streptococcus pneumoniae OC4421 containing mef(A).
Test [9] concerns Staphylococcus aureus. Nature of the test: Antibacterial activity against Staphylococcus aureus Smith infected in orally dosed Swiss Webster mouse septicemia model. The conditions noted are these: po.

Regarding `CC[C@H]1OC(=O)[C@H](C)C(=O)[C@H](C)[C@@H](O[C@@H]2O[C@H](C)C[C@H](N(C)C)[C@H]2O)[C@](C)(OC(=O)NN(C)CCc2ccc(-c3ncccn3)cc2)C[C@@H](C)C(=O)[C@H](C)[C@H]2NC(=O)O[C@@]21C`, the MIC came out at 0.5 µg/mL in [1]; 0.03 µg/mL (≈ 0.0352 µM) in test [2]; 0.5 µg/mL (≈ 0.586 µM) in [3]; 4 µg/mL (≈ 4.69 µM) in [4]; 0.06 µg/mL (≈ 0.0703 µM) in test [5]; 0.25 µg/mL (≈ 0.293 µM) in test [6]. The same compound yielded an MIC in test [8] of 0.25 µg/mL (≈ 0.293 µM). Moreover, the median effective dose (ED50) was 3.3 mg/kg in [7] and greater than 20 mg/kg in test [9].

In the case of `CC[C@H]1OC(=O)[C@H](C)C(=O)[C@H](C)[C@@H](O[C@@H]2O[C@H](C)C[C@H](N(C)C)[C@H]2O)[C@](C)(OC)C[C@@H](C)C(=O)[C@H](C)[C@H]2N(CCCCn3cnc(-c4cccnc4)c3)C(=O)O[C@]12C` [TELITHROMYCIN], the MIC in [1] turned out to be 0.5 µg/mL; in test [2] it was 0.06 µg/mL (≈ 0.0739 µM); in [3], 0.25 µg/mL (≈ 0.308 µM); in [4], 1 µg/mL (≈ 1.23 µM); in [5], 0.06 µg/mL (≈ 0.0739 µM); in test [6], 0.25 µg/mL (≈ 0.308 µM). For the same compound, in test [8], the MIC is 0.12 µg/mL (≈ 0.148 µM). In addition, the ED50 in test [7] was 4.3 mg/kg; in test [9], greater than 20 mg/kg.

In the case of `CC[C@H]1OC(=O)[C@H](C)C(=O)[C@H](C)[C@@H](O[C@@H]2O[C@H](C)C[C@H](N(C)C)[C@H]2O)[C@](C)(OC(=O)NNCCc2cccc(-c3ncccn3)c2)C[C@@H](C)C(=O)[C@H](C)[C@H]2NC(=O)O[C@@]21C`, the MIC in [1] amounted to 1 µg/mL; in test [2] it was 0.03 µg/mL (≈ 0.0358 µM); in test [3], 0.25 µg/mL (≈ 0.298 µM); in test [4], 2 µg/mL (≈ 2.38 µM); in test [5] it was 0.06 µg/mL (≈ 0.0715 µM); in [6] it was 0.25 µg/mL (≈ 0.298 µM). This compound also yielded an MIC in [8] of 0.25 µg/mL (≈ 0.298 µM). Besides, the ED50 in test [7] is 4.3 mg/kg; in test [9] it was greater than 20 mg/kg.

In the case of `CC[C@H]1OC(=O)[C@H](C)C(=O)[C@H](C)[C@@H](O[C@@H]2O[C@H](C)C[C@H](N(C)C)[C@H]2O)[C@](C)(OC(=O)NN(C)CCc2ccc(-c3ncccn3)s2)C[C@@H](C)C(=O)[C@H](C)[C@H]2NC(=O)O[C@@]21C`, the MIC in test [1] turned out to be 0.5 µg/mL; in [2], 0.03 µg/mL (≈ 0.0349 µM); in test [3], 0.25 µg/mL (≈ 0.291 µM); in test [4], 2 µg/mL (≈ 2.33 µM); in test [5] it was 0.06 µg/mL (≈ 0.0698 µM); in [6] it was 0.25 µg/mL (≈ 0.291 µM). In [8], the MIC was determined as 0.12 µg/mL (≈ 0.14 µM). Besides, the ED50 was 4.8 mg/kg in [7] and greater than 20 mg/kg in [9].

On to `CC[C@H]1OC(=O)[C@H](C)C(=O)[C@H](C)[C@@H](O[C@@H]2O[C@H](C)C[C@H](N(C)C)[C@H]2O)[C@](C)(OC(=O)NN(C)CCc2ccc(-c3ncccn3)cc2F)C[C@@H](C)C(=O)[C@H](C)[C@H]2NC(=O)O[C@@]21C`, for which the MIC in test [1] worked out at 1 µg/mL; in test [2], 0.06 µg/mL (≈ 0.0689 µM); in test [3], 0.5 µg/mL (≈ 0.574 µM); in [4] it was 4 µg/mL (≈ 4.59 µM); in test [5], 0.06 µg/mL (≈ 0.0689 µM); in test [6], 0.5 µg/mL (≈ 0.574 µM). The same compound displayed an MIC in test [8] of 0.25 µg/mL (≈ 0.287 µM). Also, the ED50 was 2.3 mg/kg in test [7] and greater than 20 mg/kg in [9].
